Assay results taken from paper PMC12430708, “Design, Synthesis, and In Vitro and In Silico Study of New Hybrid 1-(2-(4-Arylthiazol-2-yl)hydrazineylidene)-5,6-dihydro-4H-pyrrolo[3,2,1-ij]quinolin-2-ones as Factor Xa and Factor XIa Inhibitors” (Molecules, 2025).

Experiments:
Format in all cases: biochemical
factor XIa = factor XIa (Homo sapiens, UniProt P03951); test: Inhibition of factor XIa, hydrolysis kinetics of chromogenic substrate S2366; settings: for inhibition at 30 µM / Percent Inhibition at 30 μM ± SEM (n = 3), XIa: 30 μM compound, factor XIa 5 nmol/L, S2366 200 µmol/L, negative values denote percent activation; for inhibition at 30 µM: read-out: Percent Inhibition at 30 μM ± SEM (n = 3), XIa; for IC50: substrate S2366, buffer solution, read-out: IC50, μM ± SEM (n = 3), XIa
Text: (§1) The inhibition of the blood coagulation factors Xa and XIa or plasmin by the synthesized compounds 5a–o was studied by measuring the kinetics of hydrolysis of substrates specific for each of these enzymes in the presence of the compounds. A specific low-molecular-weight chromogenic substrate S2765 (Z-D-Arg-Gly-Arg-pNA·2HCl) was used in the case of factor Xa, substrate S2366 (pyroGlu-Pro-Arg-pNA·HCl) was used for factor XIa, and S2288 (H-D-Ile-Pro-Arg-pNA·2HCl) was used for plasmin (all from Chromogenix, West Chester, PA, USA). A buffer containing 140 mM NaCl, 20 mM HEPES, and 0.1% PEG 6000 (pH 8.0) was placed in the wells of a 96-well plate, followed by the addition of factor Xa or XIa (final concentration 5 nmol·L^−1) or plasmin (final concentration 10 nmol L^−1); the substrate S2765, S2366, or S2288 (final concentration 200 µmol·L^−1); and a solution of the test compound in DMSO (final concentration 30 µmol·L^−1, the DMSO content in the well was no more than 2%). The kinetics of the formation of p-nitroaniline was measured using an Eppendorf PlateReader AF2200 microplate reader (Eppendorf, Hamburg, Germany) by the absorption of light with a wavelength of 405 nm. The initial rate of substrate degradation was determined from the initial slope of the 4-nitroaniline formation curve.
(§2) The absolute value of negative inhibition values denotes percent activation.
(§3) The data obtained were processed using the GraphPad Prism 8.0.1 (244) and OriginPro 8 software.

factor Xa = factor Xa (Homo sapiens, UniProt P00742); test: Inhibition of factor Xa, hydrolysis kinetics of chromogenic substrate S2765; settings: for inhibition at 30 µM / Percent Inhibition at 30 μM ± SEM (n = 3), Xa: 30 μM compound, factor Xa 5 nmol/L, S2765 200 µmol/L, negative values denote percent activation; for inhibition at 30 µM: read-out: Percent Inhibition at 30 μM ± SEM (n = 3), Xa; for IC50: substrate S2765, buffer solution, read-out: IC50, μM ± SEM (n = 3), Xa
Text: as §1, §2, §3

plasmin = plasmin (Homo sapiens, UniProt P00747); test: Inhibition of plasmin, hydrolysis kinetics of chromogenic substrate S2288 (selectivity); settings: 30 μM compound, plasmin 10 nmol/L, S2288 200 µmol/L; for inhibition at 30 µM: read-out: Percent Inhibition at 30 μM ± SEM (n = 3), Plasmin
Text: as §1, §2, §3

Sequence of factor XIa (P03951 388-625 limits assumed): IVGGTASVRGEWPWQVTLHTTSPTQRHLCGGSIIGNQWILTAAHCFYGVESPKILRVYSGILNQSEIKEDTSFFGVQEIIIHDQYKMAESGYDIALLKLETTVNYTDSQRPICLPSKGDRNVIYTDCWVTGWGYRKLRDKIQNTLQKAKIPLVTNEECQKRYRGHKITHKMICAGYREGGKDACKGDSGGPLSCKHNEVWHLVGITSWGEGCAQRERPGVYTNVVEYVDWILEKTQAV
Sequence of factor XIa (P03951 19-387 partner limits assumed): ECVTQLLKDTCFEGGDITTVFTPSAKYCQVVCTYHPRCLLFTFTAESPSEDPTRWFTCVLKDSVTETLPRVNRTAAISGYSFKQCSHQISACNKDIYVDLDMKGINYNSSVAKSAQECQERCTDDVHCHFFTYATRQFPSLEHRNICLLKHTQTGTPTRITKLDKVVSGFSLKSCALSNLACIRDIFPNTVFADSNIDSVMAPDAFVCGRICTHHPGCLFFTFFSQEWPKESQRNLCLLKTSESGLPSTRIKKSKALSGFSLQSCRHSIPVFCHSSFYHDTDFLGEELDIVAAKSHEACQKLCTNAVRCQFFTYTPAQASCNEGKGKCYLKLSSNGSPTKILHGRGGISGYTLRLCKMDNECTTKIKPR
Sequence of plasmin (P00747 581-810 limits assumed, species assumed): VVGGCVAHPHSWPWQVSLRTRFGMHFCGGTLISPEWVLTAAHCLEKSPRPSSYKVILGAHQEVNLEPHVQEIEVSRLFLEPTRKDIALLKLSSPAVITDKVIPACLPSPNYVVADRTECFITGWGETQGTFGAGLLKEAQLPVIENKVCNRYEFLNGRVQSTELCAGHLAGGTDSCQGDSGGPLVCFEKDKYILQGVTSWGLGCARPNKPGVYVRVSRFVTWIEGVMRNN
Sequence of plasmin (P00747 97-580 partner limits assumed, species assumed): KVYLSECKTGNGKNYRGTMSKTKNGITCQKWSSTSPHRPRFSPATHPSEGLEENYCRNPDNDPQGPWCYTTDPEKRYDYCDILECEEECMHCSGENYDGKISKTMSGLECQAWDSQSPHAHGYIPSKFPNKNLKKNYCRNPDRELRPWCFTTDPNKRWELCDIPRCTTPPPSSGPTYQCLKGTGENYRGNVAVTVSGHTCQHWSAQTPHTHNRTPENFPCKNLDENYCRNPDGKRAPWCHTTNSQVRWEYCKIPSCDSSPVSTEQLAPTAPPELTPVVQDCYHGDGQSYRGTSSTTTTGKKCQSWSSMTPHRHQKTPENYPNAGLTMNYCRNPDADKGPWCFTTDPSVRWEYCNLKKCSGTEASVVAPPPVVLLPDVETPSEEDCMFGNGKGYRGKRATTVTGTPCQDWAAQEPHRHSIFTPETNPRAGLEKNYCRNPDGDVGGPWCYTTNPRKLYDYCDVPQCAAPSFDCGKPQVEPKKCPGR
Sequence of factor Xa (P00742 235-488 limits assumed): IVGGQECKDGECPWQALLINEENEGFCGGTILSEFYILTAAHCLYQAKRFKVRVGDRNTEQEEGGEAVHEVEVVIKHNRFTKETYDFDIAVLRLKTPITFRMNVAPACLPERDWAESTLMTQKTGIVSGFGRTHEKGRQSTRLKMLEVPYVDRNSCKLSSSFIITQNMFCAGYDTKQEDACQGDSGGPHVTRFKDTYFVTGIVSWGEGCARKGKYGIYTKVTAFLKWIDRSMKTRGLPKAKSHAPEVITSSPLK
Sequence of factor Xa (P00742 41-179 partner limits assumed): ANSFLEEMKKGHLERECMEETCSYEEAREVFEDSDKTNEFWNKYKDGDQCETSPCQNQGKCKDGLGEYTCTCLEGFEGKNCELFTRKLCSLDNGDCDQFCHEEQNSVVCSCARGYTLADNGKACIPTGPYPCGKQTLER

| inhibition at 30 µM (factor XIa) [%] | inhibition at 30 µM (factor Xa) [%] | Percent Inhibition at 30 μM ± SEM (n = 3), Plasmin (plasmin) [%] | inhibition at 30 µM (plasmin) [%] | Percent Inhibition at 30 μM ± SEM (n = 3), XIa (factor XIa) [%] | IC50 (factor XIa) [µM] | Percent Inhibition at 30 μM ± SEM (n = 3), Xa (factor Xa) [%] | IC50 (factor Xa) [µM] | SMILES |
| --- | --- | --- | --- | --- | --- | --- | --- | --- |
| -13 ± 11 | -30 ± 7 |  |  |  |  |  |  | COc1cc2c3c(c1)C(C)CC(C)(C)N3C(=O)/C2=N\Nc1nc(-c2ccc(Cl)cc2)cs1 (stereo not drawn) [5a, (Z)-1-(2-(4-(4-Chlorophenyl)thiazol-2-yl)hydrazineylidene)-8-methoxy-4,4,6-trimethyl-5,6-dihydro-4H-pyrrolo[3,2,1-ij]quinolin-2(1H)-one] |
| -6 ± 10 | -30 ± 10 |  |  |  |  |  |  | COc1cc2c3c(c1)C(C)CC(C)(C)N3C(=O)/C2=N\Nc1nc(-c2ccc(F)cc2)cs1 (stereo not drawn) [5b, (Z)-1-(2-(4-(4-Fluorophenyl)thiazol-2-yl)hydrazineylidene)-8-methoxy-4,4,6-trimethyl-5,6-dihydro-4H-pyrrolo[3,2,1-ij]quinolin-2(1H)-one] |
| -7 ± 8 | -40 ± 10 |  |  |  |  |  |  | COc1cc2c3c(c1)C(C)CC(C)(C)N3C(=O)/C2=N\Nc1nc(-c2ccc(Br)cc2)cs1 (stereo not drawn) [5c, (Z)-1-(2-(4-(4-Bromophenyl)thiazol-2-yl)hydrazineylidene)-8-methoxy-4,4,6-trimethyl-5,6-dihydro-4H-pyrrolo[3,2,1-ij]quinolin-2(1H)-one] |
| 98 to 100 | 98 to 100 | 5 ± 1 | < 10 | 99 | 7.7 ± 0.05 | 98 ± 1 | 5.43 ± 0.02 | CC1CC(C)(C)N2C(=O)/C(=N\Nc3nc(-c4ccc(F)cc4)cs3)c3cc(Cl)cc1c32 (stereo not drawn) [5d, (Z)-8-Chloro-1-(2-(4-(4-fluorophenyl)thiazol-2-yl)hydrazineylidene)-4,4,6-trimethyl-5,6-dihydro-4H-pyrrolo[3,2,1-ij]quinolin-2(1H)-one] |
| -2 ± 11 | -8 ± 10 |  |  |  |  |  |  | COc1ccc(-c2csc(N/N=C3\C(=O)N4c5c3cc(Cl)cc5C(C)CC4(C)C)n2)cc1 (stereo not drawn) [5e, (Z)-8-Chloro-1-(2-(4-(4-methoxyphenyl)thiazol-2-yl)hydrazineylidene)-4,4,6-trimethyl-5,6-dihydro-4H-pyrrolo[3,2,1-ij]quinolin-2(1H)-one] |
| -11 ± 9 | -25 ± 9 |  |  |  |  |  |  | COc1cccc(-c2csc(N/N=C3\C(=O)N4c5c3cc(F)cc5C(C)CC4(C)C)n2)c1 (stereo not drawn) [5f, (Z)-8-Fluoro-1-(2-(4-(3-methoxyphenyl)thiazol-2-yl)hydrazineylidene)-4,4,6-trimethyl-5,6-dihydro-4H-pyrrolo[3,2,1-ij]quinolin-2(1H)-one] |
| 76 ± 3 | 51 ± 18 |  |  |  |  |  |  | CC1(c2ccccc2)CC(C)(C)N2C(=O)/C(=N\Nc3nc(-c4ccc(Cl)cc4)cs3)c3cc(F)cc1c32 (stereo not drawn) [5g, (Z)-1-(2-(4-(4-Chlorophenyl)thiazol-2-yl)hydrazineylidene)-8-fluoro-4,4,6-trimethyl-6-phenyl-5,6-dihydro-4H-pyrrolo[3,2,1-ij]quinolin-2(1H)-one] |
| 98 to 100 | 98 to 100 | 8 ± 2 | < 10 | 100 | 7.66 ± 0.08 | 99 ± 1 | 5.75 ± 0.02 | CC1(c2ccccc2)CC(C)(C)N2C(=O)/C(=N\Nc3nc(-c4ccc(Cl)cc4)cs3)c3cc(Br)cc1c32 (stereo not drawn) [5h, (Z)-8-Bromo-1-(2-(4-(4-chlorophenyl)thiazol-2-yl)hydrazineylidene)-4,4,6-trimethyl-6-phenyl-5,6-dihydro-4H-pyrrolo[3,2,1-ij]quinolin-2(1H)-one] |
| -14 ± 10 | -21 ± 9 |  |  |  |  |  |  | COc1ccc(-c2csc(N/N=C3\C(=O)N4c5c3cccc5C(C)(c3ccc(Cl)cc3)CC4(C)C)n2)cc1 (stereo not drawn) [5i, (Z)-6-(4-Chlorophenyl)-1-(2-(4-(4-methoxyphenyl)thiazol-2-yl)hydrazineylidene)-4,4,6-trimethyl-5,6-dihydro-4H-pyrrolo[3,2,1-ij]quinolin-2(1H)-one] |
| -3 ± 6 | -3 ± 3 |  |  |  |  |  |  | COc1ccc(-c2csc(N/N=C3\C(=O)N4c5c3cc(Cl)cc5C(C)(c3ccc(Cl)cc3)CC4(C)C)n2)cc1 (stereo not drawn) [5j, (Z)-8-Chloro-6-(4-chlorophenyl)-1-(2-(4-(4-methoxyphenyl)thiazol-2-yl)hydrazineylidene)-4,4,6-trimethyl-5,6-dihydro-4H-pyrrolo[3,2,1-ij]quinolin-2(1H)-one] |
| 37 ± 8 | -12 ± 11 |  |  |  |  |  |  | CC1(c2ccc(Cl)cc2)CC(C)(C)N2C(=O)/C(=N\Nc3nc(-c4ccc(Cl)cc4)cs3)c3cc(F)cc1c32 (stereo not drawn) [5k, (Z)-6-(4-Chlorophenyl)-1-(2-(4-(4-chlorophenyl)thiazol-2-yl)hydrazineylidene)-8-fluoro-4,4,6-trimethyl-5,6-dihydro-4H-pyrrolo[3,2,1-ij]quinolin-2(1H)-one] |
| -11 ± 7 | -4 ± 3 |  |  |  |  |  |  | CC1(c2ccc(Cl)cc2)CC(C)(C)N2C(=O)/C(=N\Nc3nc(-c4ccc(F)cc4)cs3)c3cc(F)cc1c32 (stereo not drawn) [5l, (Z)-6-(4-Chlorophenyl)-8-fluoro-1-(2-(4-(4-fluorophenyl)thiazol-2-yl)hydrazineylidene)-4,4,6-trimethyl-5,6-dihydro-4H-pyrrolo[3,2,1-ij]quinolin-2(1H)-one] |
| -14 ± 7 | -17 ± 11 |  |  |  |  |  |  | CC1(c2ccc(Cl)cc2)CC(C)(C)N2C(=O)/C(=N\Nc3nc(-c4cccc(Cl)c4)cs3)c3cc(F)cc1c32 (stereo not drawn) [5m, (Z)-6-(4-Chlorophenyl)-1-(2-(4-(3-chlorophenyl)thiazol-2-yl)hydrazineylidene)-8-fluoro-4,4,6-trimethyl-5,6-dihydro-4H-pyrrolo[3,2,1-ij]quinolin-2(1H)-one] |
| -19 ± 8 | -2 ± 3 |  |  |  |  |  |  | COc1cccc(-c2csc(N/N=C3\C(=O)N4c5c3cc(F)cc5C(C)(c3ccc(Cl)cc3)CC4(C)C)n2)c1 (stereo not drawn) [5n, (Z)-6-(4-Chlorophenyl)-8-fluoro-1-(2-(4-(3-methoxyphenyl)thiazol-2-yl)hydrazineylidene)-4,4,6-trimethyl-5,6-dihydro-4H-pyrrolo[3,2,1-ij]quinolin-2(1H)-one] |
| -11 ± 12 | -4 ± 6 |  |  |  |  |  |  | CC1(c2ccc(Cl)cc2)CC(C)(C)N2C(=O)/C(=N\Nc3nc(-c4ccccc4)cs3)c3cc(Br)cc1c32 (stereo not drawn) [5o, (Z)-8-Bromo-6-(4-chlorophenyl)-4,4,6-trimethyl-1-(2-(4-phenylthiazol-2-yl)hydrazineylidene)-5,6-dihydro-4H-pyrrolo[3,2,1-ij]quinolin-2(1H)-one] |
